Experimental findings from ChEMBL document CHEMBL1158634, “Towards Gram-positive antivirulence drugs: new inhibitors of Streptococcus agalactiae Stk1” (Bioorg Med Chem Lett, 2010) are described below.

Each structure is given as a SMILES string.

The test in a line: Inhibition of Streptococcus agalactiae Stk1 preincubated for 30 mins.
Molecule `Cn1cnc2c(NCCCO)nc(N3CCOCC3)nc21` had an IC50 of 66 µM.

The molecule `Cn1cnc2c(NCCCO)nc(-c3cccc(NC(=O)NCc4ccccc4)c3)nc21` registered an IC50 of 7.5 µM.

`Cc1cccc(NC(=O)Nc2cccc(-c3nc(NCCCO)c4ncn(C)c4n3)c2)c1` gave an IC50 of 0.2 µM.

In turn, `CCCNC(=O)Nc1cccc(-c2nc(NCCCO)c3ncn(C)c3n2)c1` had an IC50 of 18 µM.

Regarding `Cn1cnc2c(NCCCO)nc(-c3cccc(NC(=O)Nc4ccc5c(c4)OCO5)c3)nc21`, the IC50 was 0.28 µM.

The molecule `Cn1cnc2c(NCCCO)nc(-c3cccc(NC(=O)Nc4cccc(Cl)c4)c3)nc21` registered an IC50 of 0.32 µM.

On to `CN(CCCO)c1nc(-c2cccc(NC(=O)Nc3cccc(Cl)c3)c2)nc2c1ncn2C`, for which the IC50 was over 300 µM.

The molecule `Cn1cnc2c(NCCCO)nc(-c3cccc(NC(=O)Nc4cccc(C#N)c4)c3)nc21` yielded an IC50 of 0.49 µM.

On to `Cn1cnc2c(NCCCO)nc(-c3cccc(NC(=O)Nc4ccccc4)c3)nc21`, for which the IC50 worked out at 1 µM.

With `Cn1cnc2c(NCCCO)nc(NCc3ccccc3)nc21`, the midpoint of inhibition, the IC50, lay at 48 µM.

Take `Cn1cnc2c(NCCCO)nc(-c3cccc(NC(=O)Nc4cccc(S(C)(=O)=O)c4)c3)nc21`: half-maximal inhibition (IC50) was put at 0.64 µM.

`COc1ccc(NC(=O)Nc2cccc(-c3nc(NCCCO)c4ncn(C)c4n3)c2)cc1` showed an IC50 of 0.63 µM.

As to `Cn1cnc2c(NCCCO)nc(-c3cccc(NC(=O)Nc4cccc(N)c4)c3)nc21`, the IC50 came out at 0.73 µM.

With `COCCCNc1nc(-c2cccc(NC(=O)Nc3cccc(Cl)c3)c2)nc2c1ncn2C`, half-maximal inhibition (IC50) required 0.28 µM.

The molecule `Cn1cnc2c(NCCO)nc(-c3cccc(NC(=O)Nc4cccc(Cl)c4)c3)nc21` registered an IC50 of 0.32 µM.

The molecule `Cn1cnc2c(NCCCN)nc(-c3cccc(NC(=O)Nc4cccc(Cl)c4)c3)nc21` came in with an IC50 of 0.48 µM.

For the molecule `Cn1cnc2c(NCCCO)nc(-c3cccc(NC(=O)Nc4cc(Cl)cc(Cl)c4)c3)nc21`, half-maximal inhibition (IC50) required 0.16 µM.

`OCCCNc1nc(Cl)nc2[nH]cnc12`: the IC50 was over 300 µM.

`Cn1cnc2c(NCCCO)nc(-c3cccc(NC(=O)Nc4ccsc4)c3)nc21`: the IC50 amounted to 2 µM.

`CCCNc1nc(-c2cccc(NC(=O)Nc3cccc(Cl)c3)c2)nc2c1ncn2C` gave an IC50 of 0.3 µM.

Molecule `Cn1cnc2c(N)nc(-c3cccc(NC(=O)Nc4cccc(Cl)c4)c3)nc21` returned an IC50 of 1.3 µM.

In the case of `Cn1cnc2c(NCCCO)nc(-c3cccc(NS(C)(=O)=O)c3)nc21`, inhibition was half-maximal at 15 µM (IC50).

`CC(=O)Nc1cccc(NC(=O)Nc2cccc(-c3nc(NCCCO)c4ncn(C)c4n3)c2)c1` had an IC50 of 0.93 µM.

Molecule `Cn1cnc2c(NCCCO)nc(-c3cccc(NC(=O)Nc4cccnc4)c3)nc21` displayed an IC50 of 0.96 µM.

The molecule `Cn1cnc2c(NCCCO)nc(-c3cccc(NC(=O)Nc4ccccc4Cl)c3)nc21` gave an IC50 of 16 µM.

`Cn1cnc2c(NCCCO)nc(-c3cccc(NC(=O)Nc4c(Cl)cccc4Cl)c3)nc21` had an IC50 of 59 µM.

Consider `CC(=O)Nc1cccc(-c2nc(NCCCO)c3ncn(C)c3n2)c1`, for which half-maximal inhibition (IC50) required 18 µM.

As to `Cn1cnc2c(NCCCO)nc(-c3cccc(C(=O)O)c3)nc21`, the midpoint of inhibition, the IC50, lay at 39 µM.

`Cn1cnc2c(NCCCO)nc(-c3cccc(NC(=O)Nc4ccc(Cl)cc4)c3)nc21`: the IC50 came out at 1.6 µM.

The molecule `Cn1cnc2c(NCCCO)nc(-c3cccc(NC(N)=O)c3)nc21` gave an IC50 of 12 µM.

`Cn1cnc2c(NCCCO)nc(Cl)nc21` registered an IC50 of 66 µM.

Molecule `CCn1cnc2c(NCCCO)nc(Cl)nc21` gave a 50% inhibitory concentration (IC50) of 175 µM.

Regarding `CC(C)n1cnc2c(NCCCO)nc(Cl)nc21`, the IC50 was over 300 µM.

The molecule `Cn1cnc2c(NCCCO)nc(-c3ccccc3)nc21` gave an IC50 of 12 µM.

For the molecule `Cn1cnc2c(NCCCO)nc(-c3cccnc3)nc21`, the IC50 is 34 µM.

`Cn1cnc2c(NCCCO)nc(N3CCNCC3)nc21` showed an IC50 of 110 µM.

The molecule `Cn1cnc2c(NCCCO)nc(-c3cccc(Cl)c3)nc21` showed an IC50 of 3 µM.

Molecule `Cn1cnc2c(NCCCO)nc(-c3cccc(-c4ccccc4)c3)nc21` had an IC50 of 4 µM.

Consider `Cn1cnc2c(NCCCO)nc(-c3cccc(N)c3)nc21`, for which the concentration for half-maximal inhibition (IC50) was 13 µM.

Consider `Cn1cnc2c(NCCCO)nc(Nc3ccccc3)nc21`, for which inhibition was half-maximal at 26 µM (IC50).

As for `Cn1cnc2c(NCCCO)nc(-c3cccc([N+](=O)[O-])c3)nc21`, the IC50 turned out to be 3 µM.

`Cn1cnc2c(NCCCO)nc(-c3cccc(C(F)(F)F)c3)nc21` registered an IC50 of 4 µM.

As for `Cn1cnc2c(NCCCO)nc(-c3cccc(NS(=O)(=O)Cc4ccccc4)c3)nc21`, the IC50 is 22 µM.

Take `Cn1cnc2c(NCCCO)nc(-c3cccc(C(=O)NCCc4cccnc4)c3)nc21`: the IC50 is 38 µM.

On to `Cn1cnc2c(NCCCO)nc(-c3cccc(C(=O)N4CCC(c5ccccc5)CC4)c3)nc21`, for which the midpoint of inhibition, the IC50, lay at 174 µM.

`Cn1cnc2c(NCCCO)nc(-c3cccc(C(=O)NCCCc4ccccc4)c3)nc21` returned an IC50 of over 300 µM.

Usually IC50 stands for the concentration at which inhibition is half-maximal. Low readings indicate inhibition by little substance, high ones a need for much substance.
